“And” between values parts separate entries of the source, which are not always exact repeats. Equal values may be shown once.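 48-hour exposure; five concentrations; linearly interpolated endpoints. Here, GI50 denotes the concentration required for 50% inhibition of growth. Definition used: TGI = concentration required for complete inhibition of growth.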
How the values were obtained:
Experiment in all cases: inhibition of tumour cell growth, NCI panel, 48 h
KM12 colon = system: KM12 colon
SW-620 colon = system: SW-620 colon
SF-539 CNS = system: SF-539 CNS
UACC-62 melanoma = system: UACC-62 melanoma
UACC-257 melanoma = system: UACC-257 melanoma
HCT-116 colon = system: HCT-116 colon
HCC-2998 colon = system: HCC-2998 colon
LOX IMVI melanoma = system: LOX IMVI melanoma
SK-MEL-2 melanoma = system: SK-MEL-2 melanoma
786-0 renal = system: 786-0 renal
MDA-MB-435 = system: MDA-MB-435

Row | Structure (SMILES) | TGI (KM12 colon) | TGI (SW-620 colon) | TGI (SF-539 CNS) | TGI (UACC-62 melanoma) | TGI (UACC-257 melanoma) | TGI (HCT-116 colon) | TGI (HCC-2998 colon) | TGI (LOX IMVI melanoma) | TGI (SK-MEL-2 melanoma) | TGI (786-0 renal) [µM] | TGI (MDA-MB-435) | GI50 (UACC-257 melanoma) | GI50 (KM12 colon) [µM] | GI50 (SW-620 colon) [µM] | GI50 (SF-539 CNS) [µM] | GI50 (UACC-62 melanoma) [µM] | GI50 (MDA-MB-435) [µM] | GI50 (HCC-2998 colon) [µM] | GI50 (LOX IMVI melanoma) [µM]
1 | CN(CCO)/N=N/c1[nH]ncc1C(N)=O | > 100 µM | > 100 µM | > 100 µM | > 100 µM | > 100 µM | > 100 µM | > 100 µM | > 100 µM | > 100 µM |  |  |  |  |  |  |  |  |  | 
2 | O=P1(c2ccccc2)C2=CCC=CC2C(c2ccccc2)N1Cc1ccccc1 (configuration not stated) | 28.3 µM | 43 µM | 31.5 µM | 21.7 µM | 34.9 µM | 32.2 µM |  |  | 29.9 µM | 29.4 | 29.8 µM |  |  |  |  |  |  |  | 
3 | CN1C(=O)N(C)C2(CCN(CCCCCCF)CC2)C1=O | > 100 µM | > 100 µM | > 100 µM | > 100 µM | > 100 µM | > 100 µM | > 100 µM | > 100 µM |  | > 100 | 71.1 µM |  |  |  |  |  |  |  | 
4 | COC(=O)C(Cc1nc2ccccc2[nH]c1=O)C(=O)C(=O)Nc1cc(C(F)(F)F)ccc1Cl (configuration not stated) | 28.3 µM | > 100 µM |  | 53.4 µM | > 100 µM | 32.1 µM | 26.4 µM | 31.5 µM | 34.9 µM | 25.2 | > 100 µM |  |  |  |  |  |  |  | 
5 | N#C/C(=C\c1ccccc1Br)C(=O)c1ccccc1 | > 100 µM | > 45.7 µM | > 100 µM | 87.5 µM | > 100 µM | > 66.8 µM | > 100 µM | 28.3 µM | > 100 µM | 30.5 |  |  |  |  |  |  |  |  | 
6 | O=C1N[C@@H](COc2ccc(C=Nc3ccc(CCc4ccc(N=Cc5ccc(OC[C@@H]6COC(=O)N6)cc5)cc4)cc3)cc2)CO1 | > 100 µM | > 100 µM |  | > 100 µM | > 100 µM | > 100 µM |  | > 100 µM | > 100 µM | > 100 | > 100 µM |  |  |  |  |  |  |  | 
7 | COc1ccccc1N=C1SCCN1C(=S)Nc1ccc(S(=O)(=O)/N=C/N(C)C)cc1 | > 100 µM | > 100 µM | > 100 µM | 75.9 µM | > 100 µM | > 100 µM | > 100 µM | > 100 µM |  | > 100 | 76.9 µM |  |  |  |  |  |  |  | 
8 | CC(=O)O[C@H]1CC[C@H]2[C@@H]3CCC(C(C)=O)[C@H](C(=O)O)[C@H]3CC[C@]12C (some centres not stated) | > 100 µM | > 100 µM | > 100 µM | > 100 µM | > 100 µM |  | > 100 µM |  | > 100 µM |  | > 100 µM |  |  |  |  |  |  |  | 
9 | CCCCCCCCCCSCC(CO)NC(=O)/C=C/c1c(C)[nH]c(=O)[nH]c1=O (configuration not stated) | > 50 µM | > 50 µM | > 36.5 µM | 7.71 µM and 9.48 µM | > 50 µM | > 50 µM | 7.38 µM and 11.5 µM | 23.8 µM and > 50 µM | 14.3 µM and 5.19 µM |  |  | 1.77 µM and 3.82 µM |  |  |  |  |  |  | 
10 | C/C=C1\CC(C(=O)OCC)CCCCCCCCCCC1=O (configuration not stated) | > 100 µM | > 100 µM | > 100 µM | > 100 µM | > 100 µM | > 100 µM |  | 80.8 µM | > 100 µM | > 100 | 38 µM |  |  |  |  |  |  |  | 
11 | CC(=O)n1ccc2c(Cl)ncnc21 | > 100 µM | > 100 µM | > 100 µM | > 100 µM | > 100 µM | > 100 µM | > 100 µM | > 100 µM | > 100 µM | > 100 |  |  |  |  |  |  |  |  | 
12 | CC(/C=N/NC1=NCCCN1)=N\NC1=NCCCN1 | > 100 µM | > 100 µM | > 100 µM | > 100 µM | > 100 µM | > 100 µM | > 100 µM | > 100 µM |  | > 100 | > 100 µM |  |  |  |  |  |  |  | 
13 | COc1cccc(-c2cc(=O)c3cc(Cl)cnc3[nH]2)c1 | 44.2 µM | > 100 µM | 2.56 µM | > 55.6 µM | > 100 µM | 10.6 µM | 3.83 µM | > 100 µM | 98.2 µM | 42.2 |  |  |  |  |  |  |  |  | 
14 | COc1cc2c(cc1OCCCCCOc1cc3c(cc1OC)C(=O)N1CCC[C@H]1CN3)N=C[C@@H]1CCCN1C2=O | 15.2 µM | 23.9 µM | 20.4 µM | 6.72 µM | 31.9 µM | 24.1 µM |  | 3.06 µM | 11.5 µM | 63.2 | 20.1 µM |  |  |  |  |  |  |  | 
15 | CC(C)N(C(C)C)P(OCCC#N)OC1CC(n2cnc3c(=O)[nH]cnc32)OC1COC(=O)NCCCCCCNC(=O)OC(C)(C)c1ccc(-c2ccccc2)cc1 (configuration not stated) | 35.5 µM | > 100 µM | 44.3 µM | 35.3 µM | 30.3 µM | > 100 µM | 65.1 µM | 32.7 µM | > 100 µM | 54.7 |  |  |  |  |  |  |  |  | 
16 | C=CC(Br)(CBr)CCC(Br)C(C)C (configuration not stated) | 4.83 µM | 5.38 µM | 6.02 µM | 12.5 µM | 24 µM | 14.3 µM |  | 3.1 µM | 12.8 µM | 2.93 | 33.5 µM |  |  |  |  |  |  |  | 
17 | CC(=O)C1(O)Cc2c(O)c3c(c(O)c2C(OC2CC(N)C(O)C(C)O2)C1)C(=O)c1ccccc1C3=O (configuration not stated) | 0.713 µM and 0.227 µM | 0.597 µM and 0.262 µM | 0.199 µM and 0.0511 µM | 0.306 µM and 0.0842 µM | 0.451 µM and 0.324 µM | 0.62 µM and 0.174 µM | 0.257 µM and 0.0758 µM | 0.243 µM and 0.0335 µM |  | 0.0409 | 0.389 µM and 0.47 µM | 0.0377 µM | 0.0167 | < 0.0114 | 0.0116 | < 0.0123 | 0.0674 | 0.0198 | 0.0214
18 | CCN(CC)CCNc1ccc2ncn3c4cc(=O)ccc4c(O)c1c23 | 22.1 µM | 21 µM | 15.1 µM | 14 µM | 17.8 µM | 15.5 µM | 15.6 µM | 5.91 µM | 21.7 µM | 14.9 |  |  |  |  |  |  |  |  | 
19 | CC(=O)CC(=O)/C=C/c1cccs1 | > 100 µM | > 100 µM | > 100 µM | > 100 µM | > 100 µM | > 100 µM |  | > 100 µM | > 100 µM | > 100 |  |  |  |  |  |  |  |  | 
20 | OC(CN1CCCCC1)c1ccc(/C=C/c2ccc(Cl)cc2)cc1 (configuration not stated) | 40.3 µM | > 100 µM | > 100 µM | 44.9 µM | 46.7 µM | > 100 µM | > 100 µM |  | 50.9 µM | > 100 | > 100 µM |  |  |  |  |  |  |  | 
21 | Cc1sc2nc3n(c(=O)c2c1C)N=C(c1ccc([N+](=O)[O-])cc1)CS3 | > 100 µM | > 100 µM | > 100 µM | > 100 µM | > 100 µM | > 100 µM | > 100 µM | > 100 µM |  | > 100 | > 100 µM |  |  |  |  |  |  |  | 

From PubChem BioAssay (NCI)
